Experiment [1] has as its target T1, Mcl-1 (Homo sapiens, UniProt Q07820).
T1 construct: made in house; host or cells: E. coli
Nature of the experiment: Fluorescence polarization assay, Bim BH3 peptide binding to GST-Mcl-1. An excerpt:
(§1) A nineteen amino acid peptide, corresponding to the BH3 domain of Bim, with the sequence FITC-GGGIAQELRRIGDEFNAY (SEQ ID NO: 1) was labeled with the tluorophore FITC according to the manufacturer's instructions (Molecular Probes, Eugene, Oreg.). This sequence was identified as being able to bind to purified Bcl-xL protein (Sattler et al. (1997) Science 275(5302): 983-86) and to have biological activity in cells (Holinger et al. J. Biol. Chem. 274; 13298-1330).
(§2) In addition, recombinant GST -Mcl-1 and GST-Bcl-xL fusion proteins were generated in E.coli and purified using glutathione-sepharose beads using conventional techniques known to those skilled in the fields of biochemistry and molecular biology, (methods for preparation are described in Strategies for Protein Purification and Characterization, Marshak, D, Kadonga, J, Burgess R, Knuth, M, Brennan, W, Sue-Hwa, L, CSH press, Cold Spring Harbor, N.Y.). Binding of the recombinant proteins to the fluorescent Bim BH3 domain was confirmed by titration of increasing concentrations of the recombinant proteins against a constant amount of labeled Bim peptide (16.65 nM). Quantitation of binding was accomplished by FP assay with mP measurements made on the Analyst-GT reader (Molecular Devices, Sunnyvale, Calif.).
Further, the ability of compound A to disrupt the interaction between the fluorescent Bim BH3 peptide and the two fusion proteins was assessed using a fluorescence polarization assay. The Bim peptide (in solution at 4 nano-Molar) and either GST-Mcl-1 (in solution at 12.5 nM) or GST-Bcl-xL (in solution at 11.8 nM) were first combined together in phosphate buttered saline buffer, and then the compound solution in DMSO was added to final concentrations ranging from 10 μM to 0.1 nM). Normally the unbound Bim polypeptide results in polarization of 5 mP units. Upon binding of the GST-Bcl-xL and GST-Mcl-1 fusion protein, polarization increased to 100 mP units.
Experiments are performed using the fluorescence polarization assay as described in Example 2. Either Bcl-xL or Mcl-1 fusion proteins were titrated and maximum mp shift indicate binding concentrations for drug titration studies, as described in Example 2. Compound II-19, was titrated from 10 μM to 0.1 nM in 2 fold serial dilution into the peptide/protein solution. The IC50 for blocking each BH3 peptide from Mcl-1 are assessed using FP, as described in Example 2.
Experiments are performed using the fluorescence polarization assay as described in Example 2. Either GST-Bcl-xL or GST-Mcl-1 fusion proteins were titrated and maximum mp shift indicate binding concentrations for drug titration studies, as described in Example 2. Compound II-20, was titrated from 10 μM to 0.1 nM in 2-fold serial dilution into the peptide/protein solution. The IC50 for blocking each BH3 peptide from Mcl-1 are assessed using FP, as described in Example 2.

The subject of experiment [2] is NCI-H929 multiple myeloma cell line. Kind of experiment: Cell viability MTS assay, NCI-H929. Type of experiment: cell-based. To be noted: Homo sapiens, 48 hours, read-out: EC50 in NCI-H929 (obatoclax). As to the method:
(§3) The lymphoid derived cell lines DHL-6 and DHL-10 were obtained from Anthony Letai of the Dana Father Cancer Research Institute, Boston, Mass. The […] derived cell line NCP-H929 was obtained irons, the NIH/NCI cell repository. AML-3 cells were obtained from Dr. Michael Andreef (MD Anderson Cancer Center, Houston, Tex.). Cells were grown in RPMI 1640 medium (GIBCO-BRL) supplemented with Pen-strep-glutamine (Gibco 10378) and 5% fetal bovine serum.
(§4) Cells were expanded in tissue culture in appropriate media and then subcultured into 96-well plates at a seeding density of 20,000-40,000 cells per well, and cells were treated with one or more compounds that were titrated info appropriate medium with FCS. Cell lines were treated with compound A at concentrations ranging from 25 μM to 25 nM. The BH3-mimetic obatoclax (Nguyen M et al. (2007), Proc. Natl. Acad. Sci. USA 104:19512-19517) was also tested against the SUDHL-6, SUDHL-10, and NCI-H929 cell lines. Cells were treated for 48 hours and scored for viability using the MTS assay (Promega). Growth inhibition was indicated as a percentage of control cell growth. Growth was determined by measuring the A570 (control cells)—A570 (treated cells)/A570 (control cells). EC50 values were calculated using Graphpad Prizm software.

In experiment [3] the test system is SUDHL-6 lymphoid cell line. Nature of the experiment: Cell viability MTS assay, SUDHL-6. To be noted: Homo sapiens, SU-DHL-6, 48 hours. Format: cell-based. As to the method: as §3, §4
Experiment [4] deals with SUDHL-10 cell line. Kind of experiment: Cell viability MTS assay, SUDHL-10 (Bax/Bak deficient). Type of experiment: cell-based, human. To be noted: Homo sapiens, SU-DHL10, 48 hours, MTS assay, Bax/Bak deficient cell line. On the procedure: as §3, §4
(In general: Tetrazolium assays rely on reduction of a dye to a coloured formazan, in cell work by metabolically active cells.)

Experiment [5] deals with NCI H929 tumors. Nature of the experiment: NCI H929 human myeloma xenograft model in mice. Type of experiment: in vivo, mouse. To be noted: bortezomib 1 mg/kg i.p. once every 3 days for 15 days; vehicle 2300 mm^3. On the procedure: Cell Culture: Tumor cell line NCI H929 was cultured according to ATCC recommendations in […] containing 10% fetal bovine serum and pen-strep. On the day of implantation, cells were washed 1× with phosphate buffered saline (PBS) and harvested via centrifugation. Cells were pelleted (5 min at 1000 rpm, RT) then resuspended in serum-free matrigel and kept on ice until implantation.
Tumor Cell Implantation: The cell line was implanted via subcutaneous injection on the right rear flank at a volume of 200 μl containing 3×10^7 cells per mouse; the injection site was cleaned using alcohol before and after injection to prevent any infection.
Tumor Assessment: Beginning 1 week post cell implantation all animals were weighed and tagged and tumors were measured and body weights taken 3 times weekly (length×width×height) on Monday, Wednesday, and Friday for the duration of study. Once an average tumor volume of 100-200 mm^3 was reached, animals were randomized and placed into 4 treatment groups of a minimum of 10 mice per group based on tumor size. Randomization was determined by tumor volume (length×width×height)[…] for all of the mice and average volume was calculated using a average function in Excel (Microsoft Professional).
Treatment: The study involved 4 groups of 10 animals per group. Animals in all dose groups were weighed on days of tumor measurement. All doses were administered i.p. at 10 mL/kg. The Bortezormib (1 mg/kg) group was once every 3 days for 15 days. The mice receiving vehicle and compound II-19 were dosed every second day. Compound II-19 was formulated in 1% DMSO, 10 mM Tris pH 8, 30% hydroxypropyl-beta-cyclodextrin; this vehicle was used as the “vehicle” control. Bortezomib was formulated in 30% propylene glycol, 5% Tween 80, 3.3% dextrose in water, pH 4, 1% DMSO.
(In general: Xenograft models place foreign cells or tissue in a host animal.)

For experiment [6], the target named is T2, Bcl-xL (Homo sapiens, UniProt Q07817).
T2 construct: made in house; host or cells: E. coli
T2 sequence (Q07817 whole entry): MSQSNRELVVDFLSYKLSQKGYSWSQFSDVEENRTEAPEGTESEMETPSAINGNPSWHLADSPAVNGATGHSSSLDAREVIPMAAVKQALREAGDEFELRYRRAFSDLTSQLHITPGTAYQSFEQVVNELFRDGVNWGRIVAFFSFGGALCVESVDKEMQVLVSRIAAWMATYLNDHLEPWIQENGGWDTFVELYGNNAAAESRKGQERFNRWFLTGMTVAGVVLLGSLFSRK
Nature of the experiment: Fluorescence polarization assay, Bim BH3 peptide binding to GST-Bcl-xL. Conditions: Bim-BH3-FITC peptide, read-out: IC50, inhibition of Bim-BH3 peptide binding to Bcl-xL.
Text: as §1, §2
Further, the ability of compound A to disrupt the interaction between the fluorescent Bim BH3 peptide and the two fusion proteins was assessed using a fluorescence polarization assay. […]
(§5) Experiments are performed using the fluorescence polarization assay as described in Example 2. […] The IC50 for blocking each BH3 peptide from Mcl-1 are assessed using FP, as described in Example 2.
as §5

[7] abbreviates: fluorescent polarisation assay of Examples 2 and 3, read-out: IC50, inhibition of MCL1.

Read-outs that look alike come from different tables or passages of the source.

T1 sequence (Q07820 whole entry): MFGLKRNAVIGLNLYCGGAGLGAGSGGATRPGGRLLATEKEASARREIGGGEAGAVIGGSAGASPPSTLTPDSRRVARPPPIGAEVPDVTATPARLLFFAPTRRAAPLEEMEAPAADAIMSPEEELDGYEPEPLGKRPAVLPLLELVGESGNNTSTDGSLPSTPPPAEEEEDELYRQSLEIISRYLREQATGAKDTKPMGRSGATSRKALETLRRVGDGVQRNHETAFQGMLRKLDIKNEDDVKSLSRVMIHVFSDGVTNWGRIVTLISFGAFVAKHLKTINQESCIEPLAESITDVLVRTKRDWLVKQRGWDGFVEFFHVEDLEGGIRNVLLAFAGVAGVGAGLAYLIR

In general, IC50 refers to the concentration at which inhibition is half-maximal. With `COc1ccc(C(=O)O)c(Nc2ccc(-c3ccc(Nc4cc(OC)ccc4C(=O)O)c(OC)c3)cc2OC)c1` [Ic-18, 2,2′-((3,3′-dimethoxy-[1,1′-biphenyl]-4,4′-diyl)bis(azanediyl))bis(4-methoxybenzoic acid)], the IC50 in experiment [1] (setting [7]) is below 50000 nM.

Take `COc1cc(-c2ccc(Nc3ccc(C)cc3C(=O)O)c(OC)c2)ccc1Nc1ccccc1C(=O)O` [Ic-7, 2-((4′-((2-carboxyphenyl)amino)-3,3′-dimethoxy-[1,1′-biphenyl]-4-Yl)amino)-5-methylbenzoic acid]: the IC50 in experiment [1] (setting [7]) is below 50000 nM.

With `COc1cc(-c2ccc(Nc3cccc(C(=O)O)c3)c(OC)c2)ccc1Nc1cccc(C(=O)O)c1` [Ic-1, 3,3′-((3,3′-dimethoxy-[1,1′-bipenyl]-4,4′-diyl)bis(azanediyl))dibenzoic acid], the IC50 in experiment [1] (setting [7]) is below 50000 nM.

By EC50 is commonly meant the midpoint of the concentration-response curve. As for `COC1=CC(c2cc3ccccc3[nH]2)=N/C1=C\c1[nH]c(C)cc1C` [obatoclax, reference compound], the 50% effective concentration (EC50) in experiment [2] was found to be 1800 nM; in experiment [3] (read-out: EC50 in SUDHL-6 (obatoclax)), 2500 nM; in experiment [4] (read-out: EC50 in SUDHL-10 (obatoclax)), 800 nM.

Take `CC(C)C[C@H](NC(=O)[C@H](Cc1ccccc1)NC(=O)c1cnccn1)B(O)O` [bortezomib, reference compound]: the “average tumor volume at the end of the study” value in experiment [5] was found to be 1180 mm^3.

`O=C(O)c1ccccc1Nc1ccc(-c2ccc(Nc3ccccc3C(=O)O)c(O)c2)cc1O` [Ic-6, 2,2′-((3,3′-dihydroxy-[1,1′-biphenyl]-4,4′-diyl)bis(azanediyl))dibenzoic acid]: the IC50 in experiment [1] (setting [7]) was below 50000 nM.

For `COc1cc(-c2ccc(Nc3ccc(C)cc3C(=O)O)c(OC)c2)ccc1Nc1ccc(C)cc1C(=O)O` [Ic-17, 6,6′-((3,3′-dimethoxy-[1,1′-biphenyl]-4,4′-diyl)bis(azanediyl))bis(3-methylbenzoic acid)], the half-inhibitory concentration (IC50) in experiment [1] (setting [7]) is below 50000 nM.

For the molecule `COC(=O)c1ccc(O)c2nc3c(CO)c(O)c(-c4c(O)c(CO)c5nc6c(O)ccc(C(=O)OC)c6nc5c4O)c(O)c3nc12` [II-20, dimethyl 1,1′,3,3′,6,6′-hexahydroxy-4,4′-bis(hydroxymethyl)-[2,2′-biphenazine]-9,9′-dicarboxylate], the IC50 in experiment [1] (fluorescence polarization, Bim-BH3-FITC peptide, GST-Mcl-1, read-out: IC50, inhibition of Bim-BH3 peptide binding to Mcl-1) is 27 nM; in experiment [6], 122 nM. Moreover, in experiment [1] (ratio of FP IC50 values), the “preference for inhibition of Mcl-1 vs. Bcl-xL” value is on record as around 5 fold. Further, the EC50 in experiment [3] (read-out: EC50, cell killing in SUDHL-6) was 9700 nM; in experiment [4] (read-out: EC50, cell killing in SUDHL-10) it was above 25000 nM.

On to `COc1cc(-c2ccc(Nc3cnccc3C(=O)O)c(OC)c2)ccc1Nc1ccccc1C(=O)O` [Ic-8], for which the IC50 in experiment [1] (setting [7]) was below 50000 nM.

The record behind these values is patent publication US9351971B2, “Substituted 2,2′-biphenazines for treating diseases” (Eutropics Pharmaceuticals, Inc., priority 2010, dated 2016).
